Like-named read-outs stand apart in the source and are kept apart here.
Legend:
[1] = Renal clearance in an intact rat (fluorescence from within the ear); assay type: in vivo, Sprague-Dawley rat; settings: bolus injection into lateral tail vein, 2 ml of 0.4 mg/ml in PBS, 470 nm laser at ear
Protocol: (§1) Incident laser light having a wavelength of about 470 nm was delivered via a fiber optic bundle to the ear of an anesthetized intact Sprague-Dawley rat. A photodetector was used to detect fluorescence from within the ear. A background reading of fluorescence was obtained prior to administration of optical agent. A pyrazine agent (2 ml of a 0.4 mg/ml solution of 3,6-diaminopyrazine-2,5-dicarbonyl acid in PBS) was then administered to the rat by a bolus injection into the lateral tail vein.
The blood clearance time profile likely followed a two compartment pharmacokinetic model. The fluorescent signal arising from the agent concentration in the blood as a function of time was therefore fit to a double exponential decay. The equation employed to fit the data was: S=Ae^−t/τ1Be^−t/τ2+C (1) where S is the fluorescent light intensity signal measured, and t is the time point of the measurement. The decay times τ1 and τ2, and the constants A, B, and C were deduced from the fitting procedure. The non-linear regression analysis package in SigmaPiot® (Systat Software Inc., Richmond Calif.) was used to fit data to Eq. (1). In this and the following example, τ1 represents the time constant for vascular-extracellular fluid equilibrium, and T2 represents optical agent clearance from the blood.

[2] = Renal clearance in a bilaterally nephrectomized rat (fluorescence from within the ear); assay type: in vivo, Sprague-Dawley rat; settings: bilaterally nephrectomized rat compared with intact rat
Protocol: as §1, with “An anesthetized Sprague-Dawley rat was bilaterally nephrectomized. Incident” for “Incident”, “of the” for “of an anesthetized intact Sprague-Dawley”, “of the pyrazine” for “of optical”, “agent. The” for “agent. A”, “vein. […] Specifically, the renal arteries were tied off to block blood flow to the kidneys.” for “vein.”
A comparison of clearance data from the intact rat (FIG. 1) and the bilaterally nephrectomized rat (FIG. 2) is shown in FIG. 3.

[3] = Detection of optical agent in a rat ureter by fluorescence; assay type: in vivo, Sprague-Dawley rat
Protocol: A Sprague-Dawley rat was anesthetized with a cocktail of ketamine (87 mg/kg) and xylazine (2.6 mg/kg) administered by intraperitoneal injection. After the animal had achieved the desired plane of anesthesia, a 25 gauge butterfly with 3″ tubing was placed in the lateral tail vein of the animal and flushed with saline, The rat was placed onto a heating pad and kept warm throughout the study.
An abdominal incision was made to access the ureters and expose the ureters to a laser having the appropriate wavelength to cause the optical agent employed to fluoresce. Data acquisition was initiated, and a background reading of fluorescence was obtained prior to administration of the optical agent.
The optical agent, 3,6-diaminopyrazine-2,5-dicarboxylic acid, was administered to the rat by a bolus injection into the lateral tail vein and traveled through the circulatory system and kidneys to reach the ureters. The dose of optical agent was about 2 mL of 0.4 mg/mL solution in PBS. The rat weighed approximately 250 g.
A 3 mW laser from Power Technology, Inc. (Little Rock, […].) was used to emit light into one end of a fiber optic bundle, the other end of the bundle being positioned adjacent the ureter. […] As shown in FIGS. 5-6, when the surgical field was exposed to incident light having a wavelength of about 470 nm, the optical agent within the ureters emitted fluorescent energy at a wavelength of about 530 nm. Images of the surgical field showing the fluorescing optical agent in the ureter are shown in FIGS. 5-6 (in the absence of a 500 nm long pass filter) and FIG. 7 (in the presence of a 500 nm long pass filter).

[4] = Excitation and emission wavelengths of optical agents; assay type: physicochemical; settings: see Example 3 and FIG. 4
From the text: In one exemplary embodiment, the optical agent is excited by light having a wavelength in the blue range of the visible portion of the electromagnetic spectrum (from about 430 nm to about 500 nm) and emits at a wavelength in the green range of the visible portion of the electromagnetic spectrum (from about 520 nm to about 565 nm). For example, fluorescein dyes can be excited with light with a wavelength of about 488 nm and have an emission wavelength of about 520 nm. As another example, 3,6-diaminopyrazine-2,5-dicarboxylic acid can be excited with light having a wavelength of about 470 nm and fluoresces at a wavelength of about 532 nm (see Example 3 and FIG. 4 herein).
In another embodiment, the excitation and emission wavelengths of the optical agent may fall in the near-infrared range of the electromagnetic spectrum. For example, indocyanine dyes, such as indocyanine green, can be excited with light with a wavelength of about 780 nm and have an emission wavelength of about 830 nm.

[5] = general statement in the description; cited from earlier work

SMILES: Nc1nc(C(=O)O)c(N)nc1C(=O)O [3,6-diaminopyrazine-2,5-dicarboxylic acid]
- period over which the agent was cleared from the bloodstream [1]: slightly over twenty
- route of excretion concluded from failure to clear [2]: renally excretable
- fluorescence emission wavelength within the ureters ([3]; incident light of about 470 nm, in vivo in rat ureter): about 530 nm
- time after intravenous administration at which fluorescence within the ureter was detected ([3]; rat, about 2 mL of 0.4 mg/mL in PBS, tail vein bolus): about 40 minutes
- localisation of fluorescence in the surgical field ([3]; rat, ureter versus surrounding tissue): only observed from the ureter and not from any surrounding tissue
- fluorescence emission wavelength ([4]; excitation about 470 nm): about 532 nm
- excitation wavelength [4]: about 470 nm

SMILES: CC1(C)C(/C=C/C=C/C=C/C=C2\N(CCCCS(=O)(=O)O)c3ccc4ccccc4c3C2(C)C)=[N+](CCCCS(=O)(=O)[O-])c2ccc3ccccc3c21 [indocyanine green]
- emission wavelength [5]: about 830 nm
- excitation wavelength [5]: about 780 nm
